This note sets out measurements from PubChem BioAssay (NCI).

Holding throughout (test): NCI tumour cell line growth inhibition, 48 h
In experiment [1] the test system is MALME-3M melanoma.
Experiment [2] has as its system DLD-1 colon.
Experiment [3] deals with SF-539 CNS.
The subject of experiment [4] is OVCAR-8 ovarian.
The subject of experiment [5] is RXF 393 renal.
Experiment [6] deals with UACC-257 melanoma.
In experiment [7] the test system is LXFL 529 NSCLC.
The subject of experiment [8] is NCI-H460 lung.
In experiment [9] the test system is NCI-H522 lung.
Experiment [10] deals with CCRF-CEM leukemia.

Molecules are shown by their SMILES.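 Assay format: 96-well plates, 48-hour exposure. The concentration for 50% growth inhibition is given as GI50. TGI denotes the concentration required for complete inhibition of growth.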

On to `C=CCC[CH2][Sn]([c]1ccccc1)([c]1ccccc1)[c]1ccccc1`, for which the GI50 in experiment [1] was 1.56 µM; in experiment [2], 1.51 µM; in experiment [3], 1.94 µM; in experiment [4], 1.78 µM; in [5], 1.34 µM; in [6], 1.87 µM. For the same molecule, the GI50 is 1.35 µM in experiment [7], 1.61 µM in experiment [8], 1.19 µM in experiment [9] and 1.01 µM in experiment [10]. The TGI in experiment [1] stood at 3.05 µM; in [2], 2.98 µM; in [3] it was 3.52 µM; in experiment [4], 3.28 µM; in [5], 2.66 µM; in experiment [6] it was 3.33 µM. Also, the TGI in experiment [7] turned out to be 2.63 µM; in [8] it was 3.06 µM; in [9], 2.49 µM; in experiment [10], 4.37 µM.
As for `CC1=C(Oc2ccccc2)C(CCC(=O)O)c2c(O)cc(Cl)c(O)c21` (configuration not stated), the TGI in experiment [2], in experiment [3], in [4], in experiment [5], in [6] and in experiment [8] was over 100 µM throughout. Moreover, the TGI in experiment [9] and in [10] was over 100 µM throughout.
`O=C(NCCCCCCNC(=O)n1cc(F)c(=O)[nH]c1=O)NCCCOCCOCCOCCOCCOCCOCCOCCOCCOCCOCCOCCOCCOCCOCCOCCOCCOCCOCCOCCOCCOCCCNC(=O)C(O)C(O)C(O)C(O)CO` (configuration not stated): the TGI is over 100 µM in experiment [1]; over 100 µM in [2]; 43.7 µM in experiment [3]; over 100 µM in experiment [4]; over 100 µM in [5]; over 100 µM in experiment [6]. Moreover, the TGI in experiment [8], in [9] and in [10] was over 100 µM throughout.
Regarding `COc1cc(C(=O)C/C(CCCC(=O)Nc2ccccc2[N+](=O)[O-])=N/NC(=O)c2cc3ccccc3cc2O)ccc1O`, the TGI in [1] was over 100 µM; in [2] it was over 95 µM; in [3], over 100 µM; in experiment [4] it was over 100 µM; in experiment [5] it was over 100 µM; in experiment [6], 82 µM. The TGI was over 100 µM in experiment [8], over 100 µM in experiment [9] and over 31.6 µM in experiment [10].
In the case of `CCN(CC)c1ccc(C(=O)c2ccccc2C(=O)O)c(O)c1`, the TGI in [1], in experiment [3], in [4], in experiment [5], in experiment [6] and in experiment [7] was over 100 µM each time. Besides, the TGI in experiment [8], in experiment [9] and in [10] was over 100 µM in each case.
With `Cc1cc(N(CCC#N)CCC#N)ccc1N=Nc1cccc(C(=O)O)c1`, the TGI in experiment [1], in experiment [2], in [3], in [4], in [5] and in [6] was over 100 µM in each case. Moreover, the TGI in [7], in [9] and in [10] was over 100 µM in each case.
Consider `CC1=C(C)C(=O)c2c(cc3ccccn23)C1=O`, for which the TGI is 17 µM in [1]; 37.1 µM in experiment [3]; 61.1 µM in experiment [4]; 27.9 µM in experiment [5]; 28.6 µM in experiment [7]; 31.5 µM in experiment [8]. This molecule also had a TGI in [10] of over 100 µM.
With `COC(=O)C(=O)C1(CCC(C)=O)c2ccccc2-c2c(C)ccc(C)c21` (configuration not stated), the TGI was over 100 µM in [1]; over 100 µM in experiment [2]; over 100 µM in experiment [4]; 76.1 µM in [5]; 91.8 µM in experiment [6]; over 100 µM in experiment [7]. Besides, the TGI was over 100 µM in [8], 94.1 µM in experiment [9] and over 100 µM in experiment [10].
Regarding `Cc1ccc(N=Cc2ccc3c(c2)OCO3)cc1C`, the TGI in experiment [1], in experiment [2], in [3], in experiment [4], in experiment [5] and in experiment [7] was over 100 µM in each case. Moreover, the TGI in [8], in experiment [9] and in [10] was over 100 µM each time.
As to `CCCC(=O)OC1C(C(O)CO)OC2OC(C)(C)OC21` (configuration not stated), the TGI in [1], in experiment [2], in experiment [3], in [4], in [5] and in experiment [6] was over 100 µM throughout. For the same molecule, the values for the TGI in experiment [8], in experiment [9] and in [10] were over 100 µM, over 100 µM and under 3.16 µM, respectively.
`COc1ccc(/C=C2\CCCC3=C2N=C2SC(C)=NN2C3c2ccc(OC)c(OC)c2)cc1OC` (configuration not stated): the GI50 is 15.1 µM in experiment [1]; 8.15 µM in experiment [3]; 6.31 µM in experiment [4]; 3.88 µM in [5]; 9.17 µM in [6]; 23.8 µM in [8]. For the same molecule, the GI50 in [9] was 10.8 µM; in experiment [10], 2.91 µM. The TGI in experiment [1] is 56.6 µM; in [3], over 100 µM; in experiment [4], over 100 µM; in experiment [5], 18.2 µM; in [6], over 100 µM; in experiment [8] it was over 100 µM. Also, the figures for the TGI in [9] and in experiment [10] were 57.8 µM and over 100 µM, respectively.
On to `Nc1nc2c(c3ncncc13)C(c1cccc(C(F)(F)F)c1)Cc1ncncc1-2` (configuration not stated), for which the GI50 in [1] was 10.2 µM; in [3] it was 1.98 µM; in experiment [4], 8.08 µM; in experiment [5], 2.96 µM; in experiment [6], 9.56 µM; in experiment [8], 3.96 µM. In addition, the GI50 was 4.66 µM in experiment [9] and 4.28 µM in experiment [10]. Besides, the TGI was 44.7 µM in experiment [1]; 5.97 µM in experiment [3]; over 100 µM in experiment [4]; 8.81 µM in [5]; 62.1 µM in experiment [6]; over 100 µM in experiment [8]. Besides, the TGI in experiment [9] is 26.1 µM; in [10] it was 23.3 µM.
As for `COc1cc(OC(C)=O)cc2c(OC(C)=O)ccc(OC(C)=O)c12`, the TGI in experiment [4], in experiment [5], in [6], in experiment [7], in [8] and in [9] was over 100 µM each time. Moreover, the TGI in experiment [10] was over 100 µM.
